Measured values published in publication PMC9976898 (2022).

Tested on: F7-40 (DNA, aptamer) CTTACGACCACCATGGGAATCGGGTGGCTTGGAGGTGCGT
Experiment: ITC
Conditions: 20 mM NaCl, 0.5 mM MgCl2; 10 mM Tris-HCl pH 7.4, 1% methanol, 23 °C

KD: 62.1 ± 4.9 µM
Structure (SMILES): C=C[C@H]1CN2CC[C@H]1C[C@H]2[C@H](O)c1ccnc2ccc(OC)cc12
